Results reported in US10017481B2, “Conformationally constrained, fully synthetic macrocyclic compounds” (POLYPHOR AG, priority 2012, dated 2018).
One block for each molecule: values may come before it.

Experiments:
[1] = target: T1, Thyrotropin-releasing hormone receptor (TRH receptor) (Homo sapiens, UniProt P34981); experiment: Ca2+ flux (FLIPR) assay, TRH receptor, agonist/antagonist mode; format: cell-based; conditions: antagonist mode
T1 construct: expressed in transfected cells; host or cells: Ca2+ optimized hematopoietic cell lines (rat)
T1 sequence (P34981 1-398): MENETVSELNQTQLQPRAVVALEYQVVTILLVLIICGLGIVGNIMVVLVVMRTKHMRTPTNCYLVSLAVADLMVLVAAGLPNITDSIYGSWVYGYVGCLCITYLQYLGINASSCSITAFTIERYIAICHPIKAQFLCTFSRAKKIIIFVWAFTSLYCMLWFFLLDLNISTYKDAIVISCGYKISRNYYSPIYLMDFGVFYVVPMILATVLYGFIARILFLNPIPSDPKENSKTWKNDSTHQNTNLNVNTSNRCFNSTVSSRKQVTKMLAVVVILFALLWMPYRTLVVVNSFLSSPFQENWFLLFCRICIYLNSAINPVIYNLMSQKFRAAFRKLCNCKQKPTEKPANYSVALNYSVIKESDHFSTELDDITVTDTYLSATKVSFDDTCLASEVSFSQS
Description: Biological and Pharmacological Methods 1. Ca^2+ Flux Assays for the GPCRs Oxytocin Receptor (OT Receptor), Thyrotropin-Releasing Hormone Receptor (TRH Receptor) and Bombesin Receptor Subtype 3 (BB3 Receptor)
Assays were performed on a FLIPR^TETRA fluorometric imaging plate reader (Molecular Devices) with ScreenWorks Version 2 (Molecular Devices) as device operating and data analysis software.
Dose dependent agonist and antagonist activities were determined. Percentage activation and percentage inhibition values were determined.
Percentage activation was determined upon initial addition of the sample compounds followed by 10 minutes' incubation at 25° C. Following compound incubation, reference agonists were added at EC80 to determine percentage inhibition.
Reference agonists were purchased from reputable commercial vendors and prepared according to each ligand's specifications. All handling of ligands were done to ensure proper control throughout the experiments.
Example compounds were weighed on a Microbalance (Mettler MX5) and dissolved in 100% DMSO to a final concentration of 2.5 mM and subsequently diluted into the assay buffer.
The assay buffer was a supplemented HBSS (Hank's Balanced Salt Solution). HBSS was supplemented with 20 mM HEPES (4-(2-hydroxyethyl)-piperazin-1-ethansulfonic acid) and 2.5 mM Probenecid (Sigma P8761).
GPCR assays were performed using Ca^2+ optimized hematopoietic cell lines (rat) with cultures never exceeding 90% confluency. Cells were harvested and seeded (from cultures at less than 90% confluency) at 50000 cells/well for a 96-well plate (12500 cells/well for 384). After seeding, the assay plates were incubated for 45 minutes at room temperature. After room temperature incubation, the assay plates were incubated at 37° C. 5% CO2 for 24 hours prior to assaying.
All GPCR assays were performed using Fluo-8 Ca^2+ dye.
Ca^2+ dye was prepared at 1× dye concentration in GPCR assay buffer. After 24 hours of incubation, cells were washed with GPCR assay buffer, and then Ca^2+-dye (100 μL/well) was added.
The plates were incubated for 90 minutes at 30° C. 5% CO2 prior to FLIPR assay.
Compound plates were prepared to add 50 μL/well during the agonist assay mode. During the FLIPR assay, 50 μL/well from the compound plate was diluted 3-fold into the existing 100 μL/well from the dye loading step. Therefore all compounds were prepared as 3× the final concentration desired in the assay.
After completion of the first single addition assay run, assay plate was removed from the FLIPR Tetra and placed at 25° C. for 7 minutes before antagonist assay.
Using the EC80 values determined during the agonist assay, all pre-incubated sample compound and reference antagonist (if applicable) wells were stimulated at the EC80 of the reference agonist. As reference ligands for these assays their obvious natural ligands oxytocin (OT), thyrotropin-releasing hormone (TRH) and bombesin (6-14) [BN(6-14)] were used.
After the addition of the reference agonist fluorescence was monitored for 180 sec using FLIPR Tetra.
From the FLIPR data, with negative control correction enabled, the maximum statistic for each well was exported and percentage activation relative to Emax control was calculated.

[2] = Metabolic stability assay, human liver microsomes; format: in vitro ADME; conditions: human microsomes, 10 μM, 37° C.
Method in brief: (§1)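 Pooled human (50 donors, mixed gender) or CD-1 mouse microsomes at 1 mg/mL protein, 10 μM compound, 100 mM potassium phosphate with NADPH-regenerating system, 37 °C in duplicate. Samples at 0, 5, 10, 20, 60 min analysed by HPLC/MS/MS; turnover as % of 0-min value and T½ (min) calculated.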

[3] = Plasma stability assay, human plasma; format: in vitro ADME
Method in brief: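 Compounds at 10 μM were incubated at 37 °C in triplicate in sodium citrate-stabilized plasma (human, or pooled mixed-gender CD-1 mouse). Samples taken at 0–240 min were acetonitrile-quenched and analyzed by HPLC/MS/MS. Remaining peak area as % of t0 gave endpoint stability (%) and half-life (min).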

[4] = Metabolic stability assay, CD-1 mouse microsomes; format: in vitro ADME; conditions: CD-1 mouse microsomes, 10 μM, 37° C.
Method in brief: as §1

[5] = target: T2, human leukotriene B4 receptor (LTB4R) (Homo sapiens, UniProt Q15722); experiment: Human LTB4 receptor cell-based assay (CHO mito-i-Photina, flash luminescence); conditions: antagonist mode
T2 construct: host or cells: CHO mito-i-Photina cells
T2 sequence (Q15722 whole entry): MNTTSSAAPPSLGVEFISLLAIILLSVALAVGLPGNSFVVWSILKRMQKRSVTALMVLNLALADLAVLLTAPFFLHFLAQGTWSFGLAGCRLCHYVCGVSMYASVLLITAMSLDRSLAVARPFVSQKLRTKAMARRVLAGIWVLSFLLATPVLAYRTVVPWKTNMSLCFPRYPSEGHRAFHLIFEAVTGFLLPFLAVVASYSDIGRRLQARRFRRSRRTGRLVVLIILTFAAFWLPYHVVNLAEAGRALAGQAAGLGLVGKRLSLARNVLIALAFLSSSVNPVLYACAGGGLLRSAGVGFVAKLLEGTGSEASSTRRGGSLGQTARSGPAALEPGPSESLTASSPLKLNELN
Text: 3. Human LTB4 Receptor Cell-Based Assay
CHO mito-i-Photina® cells (Axxam SpA) stably expressing the human leukotriene B4 receptor (LTB4R) were used for monitoring activation of the target LTB4R, a GPCR (Gαq), by measuring the flash luminescence of Ca^2+ sensitive photoprotein as reporter system with FLIPR^TETRA screening instrumentation (Molecular Devices) upgraded with an ICCD Camera (MDC). For data quality check and data analysis a Genedata Screener 10.0.3 was used, and for curve fitting of reference agonist and antagonist GraphPad Prism Software.
The reference agonist LTB4 and antagonist U-75302 were purchased from reputable commercial vendors and prepared according to each ligand's specifications. All handling of ligands were done to ensure proper control throughout the experiments.
The steps of the implemented workflow and data analysis are mainly as follows:
mito-1-Photina cells are seeded (10000 c/w in 384 MTP; in complete medium 25 μL/well) for 24 hours, removed from the incubator, equilibrated at room temperature for 1 h, freed from the growth medium, loaded with 30 μL/well of Tyrode's buffer containing 10 μM coelenterazine, and incubated for 3 hours at rt.
All compounds were tested at 10 μM with triplicate data points.
After incubation, the volume in all the wells is flattened to 20 μL by aspiration with CyBi®-Vario pipettor. The First Injection (10 μL of test compounds or reference antagonist U-75302 in Tyrode's buffer+DMSO 0.5%) is performed by the FLIPR^TETRA and the kinetic response is monitored over a period of 120 seconds. Incubation at rt for 10 min. is followed by the Second Injection (15 μL of LTB4 at EC80 in Tyrode's buffer) and monitoring of the kinetic response over a period of 120 seconds.
The possible kinetic response is divided into two distinct phases: Monitoring the kinetic response after the First Injection is indicated as Compound Addition (CA) and measures the agonistic activity of compounds; monitoring the kinetic response after the Second Injection is indicated as Target Activation (TA) and measures the antagonistic activity of a compound.
The activity determination (IC50 determination) experiment is performed using LTB4 as agonist (100 nM corresponding to EC80). Selected compound are tested in 8 doses intraplate dose response with quadruplicate data points.

IC50 [1]: 1.4 µM | inhibition at 10 µM [1]: 91%
Structure (SMILES): O=C(CN1CCCC1)N[C@H]1C[C@H]2COc3cccc(c3)-c3ccccc3C(=O)NCC[C@@H](NC(=O)Cc3cccc4ccccc34)C(=O)N2C1 [Ex. 7, N-[(12R,16S,18S)-8,13-dioxo-16-{[2-(1-pyrrolidinyl)acetyl]amino}-20-oxa-9,14-diazatetracyclo[19.3.1.0^2,7.0^14,18]pentacosa-1(25),2,4,6,21,23-hexaen-12-yl]-2-(1-naphthyl)acetamide]

half-life at 10 μM ([2]; both sexes, liver microsomes, 1 mg/ml protein, read-out: Metabolic Stability T ½ [min] hum): > 60 min | Metabolic Stability 60 min hum [% remain.] ([2]; 60 min): 53 % remain. | Plasma Stability 240 min hum [% remain.] ([3]; human plasma, 240 min, 10 μM, 37° C.): 100 % remain. | half-life at 10 μM ([3]; human, plasma): > 240 min | Metabolic Stability 60 min mouse/(rat) [% remain.] ([4]; 60 min): 34 % remain. | half-life at 10 μM ([4]; both sexes, 1 mg/ml protein, read-out: Metabolic Stability T ½ [min] mouse/(rat)): 40 min | IC50 [5]: 1.97 µM | inhibition at 10 µM ([5]; 10 μM): 100%
Structure (SMILES): COc1ccc2c(c1)-c1cccc(c1)C(=O)N(C)[C@H](C(=O)NCc1cccnc1)CCC(=O)N[C@H](C)CO2 [Ex. 50, (10R,15S)-4-methoxy-10,16-dimethyl-12,17-dioxo-N-(3-pyridinylmethyl)-8-oxa-11,16-diazatricyclo[16.3.1.0^2,7]docosa-1(22),2,4,6,18,20-hexaene-15-carboxamide]

inhibition at 10 µM [1]: 29%
Structure (SMILES): O=C(Cn1ccnc1)N[C@H]1C[C@H]2COc3cccc(c3)-c3ccccc3C(=O)NCC[C@@H](NC(=O)Cc3cccc4ccccc34)C(=O)N2C1 [Ex. 332, 2-(1H-imidazol-1-yl)-N-[(12R,16S,18S)-12-{[2-(1-naphthyl)acetyl]amino}-8,13-dioxo-20-oxa-9,14-diazatetracyclo[19.3.1.0^2,7.0^14,18]pentacosa-1(25),2,4,6,21,23-hexaen-16-yl]acetamide]

inhibition at 10 µM [1]: 35%
Structure (SMILES): O=C(Cc1cccc2ccccc12)N[C@@H]1CCNC(=O)c2ccccc2-c2cccc(c2)OC[C@@H]2C[C@H](NC(=O)Nc3cccnc3)CN2C1=O [Ex. 333, N-[(12R,16S,18S)-8,13-dioxo-16-{[(3-pyridinylamino)carbonyl]amino}-20-oxa-9,14-diazatetracyclo[19.3.1.0^2,7.0^14,18]pentacosa-1(25),2,4,6,21,23-hexaen-12-yl]-2-(1-naphthyl)acetamide]

inhibition at 10 µM [1]: 40%
Structure (SMILES): O=C(CN1CCCC1)N[C@H]1C[C@H]2COc3cccc(c3)-c3ccccc3C(=O)NCC[C@@H](NC(=O)Cc3cccc(Cl)c3)C(=O)N2C1 [Ex. 334, 2-(3-chlorophenyl)-N-[(12R,16S,18S)-8,13-dioxo-16-{[2-(1-pyrrolidinyl)acetyl]amino}-20-oxa-9,14-diazatetracyclo[19.3.1.0^2,7.0^14,18]pentacosa-1(25),2,4,6,21,23-hexaen-12-yl]acetamide]

inhibition at 10 µM [1]: 34%
Structure (SMILES): O=C(CN1CCCC1)N[C@H]1C[C@H]2COc3cccc(c3)-c3ccccc3C(=O)NCC[C@@H](NC(=O)CC3CCCCC3)C(=O)N2C1 [Ex. 335, 2-cyclohexyl-N-[(12R,16S,18S)-8,13-dioxo-16-{[2-(1-pyrrolidinyl)acetyl]amino}-20-oxa-9,14-diazatetracyclo[19.3.1.0^2,7.0^14,18]pentacosa-1(25),2,4,6,21,23-hexaen-12-yl]acetamide]

IC50 [1]: 8.2 µM | inhibition at 10 µM [1]: 48%
Structure (SMILES): O=C(CN1CCCC1)N[C@H]1C[C@H]2COc3cccc(c3)-c3ccccc3C(=O)NCC[C@@H](NC(=O)Nc3cccc4ccccc34)C(=O)N2C1 [Ex. 336, N-[(12R,16S,18S)-12-{[(1-naphthylamino)carbonyl]amino}-8,13-dioxo-20-oxa-9,14-diazatetracyclo[19.3.1.0^2,7.0^14,18]pentacosa-1(25),2,4,6,21,23-hexaen-16-yl]-2-(1-pyrrolidinyl)acetamide]
